Assays:
[1] = test system: cellular pERK in ASPC-1 (KRAS G12D) cells; experiment: Cell based pERK assay, ASPC-1; settings: Homo sapiens, ASPC1; ASPC-1 (KRAS G12D), 2 hours incubation, HTRF phospho-ERK1/2; read-out: AsPC1 pERK EC50
Summary of the method: (§1)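 Cells seeded overnight (5000 AsPC-1 or 7500 others per well; RPMI/10% FBS, DMEM/10% FBS for MIA-PaCa-2), treated with 1:3 serial dilutions for 2 h at 37 °C. Phospho-ERK1/2 (Thr202/Tyr204) measured by HTRF (665/615 nm) after overnight lysis, normalized to DMSO and saturating known-inhibitor controls.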

GDP-loaded KRAS-G12V = GDP-loaded KRAS-G12V (Homo sapiens, UniProt P01116, G12V); experiment: KRAS (GDP) biochemical TR-FRET probe displacement assay, G12V; assay type: binding; settings: 2 hours
GDP-loaded KRAS-G12V, sequence (P01116 1-188 isoform P01116-2 G12V): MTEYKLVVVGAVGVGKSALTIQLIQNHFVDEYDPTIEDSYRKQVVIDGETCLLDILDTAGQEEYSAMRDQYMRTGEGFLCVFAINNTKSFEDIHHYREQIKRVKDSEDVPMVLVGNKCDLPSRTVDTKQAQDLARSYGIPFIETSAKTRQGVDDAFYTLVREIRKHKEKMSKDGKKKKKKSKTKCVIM
Protocol: (§2) Compounds are tested for binding to GDP-loaded wild-type KRAS (WT), KRAS-G12C, KRAS-G12D, and KRAS-G12V in a 384-well assay format using a TR-FRET probe displacement assay in buffer consisting of 50 mM Hepes (pH 7.4), 150 mM NaCl, 5 mM MgCl2 and 0.005% Tween-20. […] Compounds are serially diluted (1:3) in DMSO. The LabCyte ECHO Acoustic dispenser was used to pre-spot the assay plates (384-well Non-Binding Surface plates, Corning, Catalog #3824) with 50 nL of compound. 5 μL of 2X enzyme concentration is added to the pre-spotted plates and incubated for 30 minutes before adding 5 μL of 2X concentration of Eu-streptavidin and Cy-5 labelled probe (10 μL final reaction volume). The plates are incubated at room temperature for 2 hours before measuring TR-FRET ratio (665 nm/615 nm) on the Envision multimode plate reader. The ratios are normalized to a positive (saturating concentration of known inhibitor) and negative (DMSO) control and plotted against the log of compound concentration.

[2] = test system: cellular pERK in NCI-H441 (KRAS-G12V) cells; experiment: Cell based pERK assay, NCI-H441; settings: Homo sapiens; NCI-H441 (KRAS-G12V), 2 hours incubation, HTRF phospho-ERK1/2; read-out: H441 PERK EC50
Summary of the method: as §1

[3] = test system: cellular pERK in MIA-PaCa-2 (KRAS-G12C) cells; experiment: Cell based pERK assay, MIA-PaCa-2; settings: Homo sapiens; MIA-PaCa-2 (KRAS-G12C), 2 hours incubation, HTRF phospho-ERK1/2; read-out: MIAPaCa2 pERK EC50
Summary of the method: as §1

[4] = test system: cellular pERK in Kuramochi (WT KRAS) cells; experiment: Cell based pERK assay, Kuramochi; settings: Kuramochi (WT KRAS), 2 hours incubation, HTRF phospho-ERK1/2; read-out: Kuramochi pERK EC50
Summary of the method: as §1

[5] = molecular target: GDP-loaded wild-type KRAS (WT) (Homo sapiens, UniProt P01116); experiment: KRAS (GDP) biochemical TR-FRET probe displacement assay, WT; assay type: binding; settings: 2 hours
GDP-loaded wild-type KRAS (WT), sequence (P01116 1-188 isoform P01116-2): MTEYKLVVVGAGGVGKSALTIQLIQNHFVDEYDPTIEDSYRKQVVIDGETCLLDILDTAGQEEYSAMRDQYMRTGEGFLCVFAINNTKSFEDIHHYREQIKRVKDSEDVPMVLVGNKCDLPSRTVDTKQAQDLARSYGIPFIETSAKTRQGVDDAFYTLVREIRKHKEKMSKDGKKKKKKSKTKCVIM
Protocol: as §2

GDP-loaded KRAS-G12D = GDP-loaded KRAS-G12D (Homo sapiens, UniProt P01116, G12D); experiment: KRAS (GDP) biochemical TR-FRET probe displacement assay, G12D; assay type: binding; settings: 2 hours
GDP-loaded KRAS-G12D, sequence (P01116 1-188 isoform P01116-2 G12D): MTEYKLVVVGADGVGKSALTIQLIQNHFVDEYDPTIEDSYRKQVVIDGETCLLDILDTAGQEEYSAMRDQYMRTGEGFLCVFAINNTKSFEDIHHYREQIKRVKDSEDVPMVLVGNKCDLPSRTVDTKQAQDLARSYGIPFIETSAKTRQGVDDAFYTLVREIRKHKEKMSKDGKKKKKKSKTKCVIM
Protocol: as §2

GDP-loaded KRAS-G12C = GDP-loaded KRAS-G12C (Homo sapiens, UniProt P01116, G12C); experiment: KRAS (GDP) biochemical TR-FRET probe displacement assay, G12C; assay type: binding; settings: 2 hours
GDP-loaded KRAS-G12C, sequence (P01116 1-188 isoform P01116-2 G12C): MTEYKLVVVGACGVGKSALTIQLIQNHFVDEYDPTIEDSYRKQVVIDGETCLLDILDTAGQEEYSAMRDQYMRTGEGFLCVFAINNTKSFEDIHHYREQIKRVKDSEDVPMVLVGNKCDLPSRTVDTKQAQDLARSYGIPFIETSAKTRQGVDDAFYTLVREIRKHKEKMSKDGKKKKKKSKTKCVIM
Protocol: as §2

C#Cc1c(F)ccc2cc(O)cc(-c3c(F)c4c5c(nc(OC[C@@]67CCCN6C[C@H](F)C7)nc5c3F)N3C[C@@]5(F)CC[C@H](N5)[C@H]3CC4)c12 [Example 4-41, 5-ethynyl-6-fluoro-4-((1S,4S,14aR)-4,10,12-trifluoro-8-(((2R,7aS)-2-fluorotetrahydro-1H-pyrrolizin-7a(5H)-yl)methoxy)-1,2,3,4,5,13,14,14a-octahydro-1,4-epiminoazepino[1′,2′:1,7]azepino[2,3,4-de]quinazolin-11-yl)naphthalen-2-ol]
EC50 [1]: 29.7 nM | IC50 (GDP-loaded KRAS-G12V): 0.949 nM | EC50 [2]: 4.42 nM | EC50 [3]: 0.501 nM | EC50 [4]: 8.27 nM | IC50 [5]: 0.5 nM | IC50 (GDP-loaded KRAS-G12D): 1.41 nM | IC50 (GDP-loaded KRAS-G12C): 0.386 nM

C[C@H]1Cc2nc(-c3cc(N)cc4ccc(F)c(Cl)c34)c(F)c3nc(OCC45CCCN4CCC5)nc(c23)N2C[C@@]3(F)CC[C@](F)(N3)[C@H]12 [Example 5-3]
EC50 [1]: 31.3 nM | IC50 (GDP-loaded KRAS-G12V): 2.96 nM | EC50 [2]: 9.64 nM | EC50 [3]: 0.897 nM | EC50 [4]: 1.45 nM | IC50 [5]: 0.266 nM | IC50 (GDP-loaded KRAS-G12D): 7.83 nM | IC50 (GDP-loaded KRAS-G12C): 1.55 nM

Nc1cc(-c2nc3c4c(nc(OCC56CCCN5CCC6)nc4c2F)N2C[C@@]4(F)CC[C@](F)(N4)[C@H]2CCC3)c2c(OC(F)(F)F)c(F)ccc2c1 [Example 5-5, 6-fluoro-4-[(4S,7R,8R)-4,7,15-trifluoro-18-(1,2,3,5,6,7-hexahydropyrrolizin-8-ylmethoxy)-2,13,17,19,21-pentazapentacyclo[10.7.1.14,7.02,8.016,20]henicosa-1(19),12(20),13,15,17-pentaen-14-yl]-5-(trifluoromethoxy)naphthalen-2-amine]
EC50 [1]: 519 nM | IC50 (GDP-loaded KRAS-G12V): 85 nM | EC50 [2]: 221 nM | EC50 [3]: 33.6 nM | EC50 [4]: 5.9 nM | IC50 [5]: 18.5 nM | IC50 (GDP-loaded KRAS-G12D): ≥ 100 nM | IC50 (GDP-loaded KRAS-G12C): 21.6 nM

C#Cc1c(F)c(F)cc2cc(N)cc(-c3nc4c5c(nc(OCC67CCCN6CCC7)nc5c3F)N3C[C@@]5(F)CC[C@](F)(N5)[C@@H]3[C@@H](C)C4)c12 [Example 5-7, 5-ethynyl-6,7-difluoro-4-((5S,5aS,6R,9S)-1,6,9-trifluoro-5-methyl-12-((tetrahydro-1H-pyrrolizin-7a(5H)-yl)methoxy)-4,5,5a,6,7,8,9,10-octahydro-3,10a,11,13,14-pentaaza-6,9-methanonaphtho[1,8-ab]heptalen-2-yl)naphthalen-2-amine]
EC50 [1]: 12.4 nM | IC50 (GDP-loaded KRAS-G12V): 0.723 nM | EC50 [2]: 3.1 nM | EC50 [3]: 0.378 nM | EC50 [4]: 2.75 nM | IC50 [5]: 0.116 nM | IC50 (GDP-loaded KRAS-G12D): 1.03 nM | IC50 (GDP-loaded KRAS-G12C): 0.311 nM

— patent publication US20250042922A1, “KRAS MODULATING COMPOUNDS” (priority 2023, published 2025)
